The subject of assay [1] is Mycobacterium tuberculosis. Kind of assay: Antimicrobial activity against 3 weeks old culture of Mycobacterium tuberculosis H37Ra assessed as colony forming unit in hypoxic condition at 10.3 ug/ml for 3 hrs. In kind it is functional.
Assay [2] relates to Mycobacterium tuberculosis. As to the kind of experiment: Antimicrobial activity against 3 weeks old culture of Mycobacterium tuberculosis H37Ra assessed as colony forming unit in aerobic condition at 10.3 ug/ml for 3 hrs. In kind it is functional.
For assay [3], the system named is Mycobacterium tuberculosis. As to the kind of experiment: Antimicrobial activity against Mycobacterium tuberculosis H37Rv. In kind it is functional.
Assay [4] concerns Mycobacterium tuberculosis. As to the kind of experiment: Antimicrobial activity against 3 weeks old culture of Mycobacterium tuberculosis H37Ra assessed as colony forming unit at 4.5 ug/ml for 3 days at pH 5.5. The assay is classed as functional.
The subject of assay [5] is Mycobacterium tuberculosis. As to the kind of experiment: Antimicrobial activity against 3 weeks old culture of Mycobacterium tuberculosis H37Rv assessed as 1:2 serum inhibitory titers treated with blood from 100 mg/kg, po dosed Swiss mouse collected after 2 hrs. In kind it is functional, organism-based. Also noted: dose 100 mg/kg.
The subject of assay [6] is Mycobacterium tuberculosis. Kind of assay: Antimicrobial activity against 3 weeks old culture of Mycobacterium tuberculosis H37Ra assessed as colony forming unit at 4.5 ug/ml for 3 days at pH 7. In kind it is functional.
The test system of assay [7] is Mycobacterium tuberculosis. As to the kind of experiment: Antimicrobial activity against Mycobacterium tuberculosis infected in human monocytes. The assay is classed as functional.
In assay [8] the test system is Mycobacterium tuberculosis. Kind of assay: Antimicrobial activity against 3 weeks old culture of Mycobacterium tuberculosis H37Ra assessed as colony forming unit in hypoxic condition at 4.5 ug/ml for 3 hrs. The assay is classed as functional.
For assay [9], the system named is Mycobacterium tuberculosis. As to the kind of experiment: Antimicrobial activity against 2 months old culture of Mycobacterium tuberculosis H37Ra assessed as colony forming unit at 5 ug/ml for 3 days at pH 5.5. In kind it is functional.
The subject of assay [10] is Mycobacterium tuberculosis. Kind of assay: Antimicrobial activity against 3 weeks old culture of Mycobacterium tuberculosis H37Rv assessed as 1:4 serum inhibitory titers treated with blood from 100 mg/kg, po dosed Swiss mouse collected after 2 hrs. In kind it is functional, organism-based. Also noted: dose 100 mg/kg.
The subject of assay [11] is Mycobacterium tuberculosis. Kind of assay: Antimicrobial activity against 2 months old culture of Mycobacterium tuberculosis H37Ra assessed as colony forming unit at 4.5 ug/ml for 3 days at pH 5.5. In kind it is functional.
Assay [12] concerns Mycobacterium tuberculosis. Kind of assay: Antimicrobial activity against 2 months old culture of Mycobacterium tuberculosis H37Ra assessed as colony forming unit at 4.5 ug/ml for 3 days at pH 7. The assay is classed as functional.
The subject of assay [13] is Mycobacterium tuberculosis. Kind of assay: Antimicrobial activity against 3 weeks old culture of Mycobacterium tuberculosis H37Ra assessed as colony forming unit in aerobic condition at 4.5 ug/ml for 3 hrs. The assay is classed as functional.
In assay [14] the test system is Mycobacterium tuberculosis. As to the kind of experiment: Antimicrobial activity against 1 month old culture of Mycobacterium tuberculosis H37Ra assessed as colony forming unit at 10 ug/ml for 3 days at pH 5.5. In kind it is functional.
The subject of assay [15] is Mycobacterium tuberculosis. Kind of assay: Antimicrobial activity against Mycobacterium tuberculosis H37Rv assessed as drug concentration required to kill 99% of the inoculum. In kind it is functional.
The test system of assay [16] is Mycobacterium tuberculosis. Kind of assay: Antimicrobial activity against 3 weeks old culture of Mycobacterium tuberculosis H37Rv assessed as 1:16 serum inhibitory titers treated with blood from 25 mg/kg, po dosed Swiss mouse collected after 1 hrs. In kind it is functional, organism-based. Details: dose 25 mg/kg.
Assay [17] has as its system Mycobacterium tuberculosis. As to the kind of experiment: Antimicrobial activity against 2 months old culture of Mycobacterium tuberculosis H37Ra assessed as colony forming unit at 100 ug/ml for 3 days at pH 5.5. In kind it is functional.
In assay [18] the test system is Mycobacterium tuberculosis. Kind of assay: Antimicrobial activity against 2 weeks old culture of Mycobacterium tuberculosis H37Ra assessed as colony forming unit at 100 ug/ml for 3 days at pH 5.5. In kind it is functional.
The test system of another assay is Escherichia coli. Kind of assay: Antimicrobial activity against Escherichia coli DH5alpha. The assay is classed as functional.
Assay [19] deals with Mycobacterium tuberculosis. Kind of assay: Antimicrobial activity against 3 weeks old culture of Mycobacterium tuberculosis H37Ra assessed as colony forming unit at 3.3 ug/ml for 3 days at pH 7. The assay is classed as functional.
Assay [20] relates to Mycobacterium tuberculosis. Kind of assay: Antimicrobial activity against 2 months old culture of Mycobacterium tuberculosis H37Ra assessed as colony forming unit at 3.3 ug/ml for 3 days at pH 7. In kind it is functional.
For assay [21], the system named is Mycolicibacterium smegmatis. Kind of assay: Antimicrobial activity against Mycobacterium smegmatis mc26. The assay is classed as functional.
Assay [22] concerns Mycobacterium tuberculosis. Kind of assay: Antimicrobial activity against 3 weeks old culture of Mycobacterium tuberculosis H37Ra assessed as colony forming unit in aerobic condition at 3.3 ug/ml for 3 hrs. The assay is classed as functional.
For assay [23], the system named is Mycobacterium tuberculosis. Kind of assay: Antimicrobial activity against 2 months old culture of Mycobacterium tuberculosis H37Ra assessed as colony forming unit at 3.3 ug/ml for 3 days at pH 5.5. In kind it is functional.
For assay [24], the system named is Mycobacterium tuberculosis. As to the kind of experiment: Antimicrobial activity against 3 weeks old culture of Mycobacterium tuberculosis H37Ra assessed as colony forming unit at 3.3 ug/ml for 3 days at pH 5.5. The assay is classed as functional.
Assay [25] deals with Mycobacterium tuberculosis. As to the kind of experiment: Antimicrobial activity against 3 weeks old culture of Mycobacterium tuberculosis H37Ra assessed as colony forming unit in hypoxic condition at 3.3 ug/ml for 3 hrs. In kind it is functional.
For assay [26], the system named is Mycobacterium tuberculosis. As to the kind of experiment: Antimicrobial activity against 3 weeks old culture of Mycobacterium tuberculosis H37Ra assessed as colony forming unit in hypoxic condition at 2 ug/ml for 3 hrs. In kind it is functional.
In assay [27] the test system is Mycobacterium tuberculosis. As to the kind of experiment: Antimicrobial activity against 3 weeks old culture of Mycobacterium tuberculosis H37Ra assessed as colony forming unit in aerobic condition at 2 ug/ml for 3 hrs. In kind it is functional.
For assay [28], the system named is Mycobacterium tuberculosis. As to the kind of experiment: Antimicrobial activity against 2 months old culture of Mycobacterium tuberculosis H37Ra assessed as colony forming unit at 10 ug/ml for 3 days at pH 5.5. In kind it is functional.

Values after ≈ are worked out from the molar mass of the structure shown. Active and inactive are the calls of the source.

`C(=NC1CCCCC1)=NC1CCCCC1` [DICYCLOHEXYLCARBODIIMIDE]: the values for the log10CFU/ml in assay [1] and in [2] were 7.37 and 7.43, respectively.

One may read the MIC as the smallest concentration in the dilution series that meets the test's criterion for growth inhibition. Low values mean inhibition by little substance, high ones a need for much substance. On to `CCN(CC)C(=S)SSC(=S)N(CC)CC` [DISULFIRAM], for which the MIC in assay [3] came to 8 µg/mL (≈ 27 µM).

Broadly, the MBC is the smallest concentration meeting the test's criterion for killing. Low values mean greater bactericidal potency, high ones weaker bactericidal potency. `CCN(CC)C(=S)[S-].[Na+]` [DITIOCARB SODIUM]: the log10CFU/ml in assay [4] came to 1.28; in assay [6], 2.07; in assay [8] it was 7.22; in assay [9], 0.96; in assay [11] it was 3.18; in [12], 1.73. Further, the log10CFU/ml in assay [13] is 6.03; in assay [14], 0.14. In addition, the result in assay [5] and in [10] was Active. Also, the MIC in assay [7] is 1 µg/mL; in assay [3] it was 4 µg/mL. For the same molecule, the MBC in assay [3] came out at 8 µg/mL.

For the molecule `NNC(=O)c1ccncc1` [ISONIAZID], in assay [15], the Activity was determined as 0.25 µg/mL. Also, the result in assay [16] was Active. Also, in assay [3], the MBC was determined as 0.12 µg/mL (≈ 0.875 µM) and 0.06 µg/mL (≈ 0.438 µM) was the least that counted as inhibitory (MIC).

For `NC(=O)c1cnccn1` [PYRAZINAMIDE], the log10CFU/ml in assay [17] was 0.08; in assay [18], 0.26.

As to `S=C(S)N1CCCC1` [PYRROLIDINE DITHIOCARBAMATE], the MIC in the assay on Escherichia coli was determined as 64 µg/mL (≈ 435 µM); in [3], 0.125 µg/mL (≈ 0.849 µM); in assay [21], 16 µg/mL (≈ 109 µM). Also, the Activity in assay [15] was 0.5 µg/mL. In addition, the log10CFU/ml is listed as 2.65 in assay [19]; 0.94 in assay [20]; 0.42 in assay [9]; 6.19 in [22]; 0.13 in [23]; 0.89 in assay [24]. In addition, the log10CFU/ml in assay [14] is on record as 0.06; in assay [25] it was 7.1. Moreover, the MBC in [3] came out at 0.5 µg/mL (≈ 3.4 µM).

`CO[C@H]1/C=C/O[C@@]2(C)Oc3c(C)c(O)c4c(O)c(c(/C=N/N5CCN(C)CC5)c(O)c4c3C2=O)NC(=O)/C(C)=C\C=C\[C@H](C)[C@H](O)[C@@H](C)[C@@H](O)[C@@H](C)[C@H](OC(C)=O)[C@@H]1C` [RIFAMPIN]: the log10CFU/ml is listed as 6.36 in assay [26], 4.63 in assay [27] and 1.32 in assay [28].
